Patent publication US20060009433A1, “Neuroprotective spirostenol pharmaceutical compositions” (priority 2003, published 2006)

Columns and labels:
PC12 cells = test: Membrane potential (CytoLite luminescence) in Aβ-treated PC12 cells; type: cell-based, rat
Method: (§1) PC12 cells (rat pheochromocytoma neurons) from ATCC (Manassas, Va.) were cultured at 37° C. and 5% CO2 in RPMI 1640 medium devoid of glutamine and supplemented with 10% fetal bovine serum and 5% horse serum. Yao Z, Drieu K and Papadopoulos V., The Gingko biloba extract EGb 761 rescues PC12 neuronal cells from β-amyloid-induced cell death by inhibiting the formation of (3-amyloid-derived diffusible neurotoxic ligands, Brain Res, 889, 181-190 (2001). Cells were seeded in 96-well plates (8×10^4 cells/well). After an overnight period of incubation, increasing concentrations of aggregated Aβ (0.1, 1 and 10 μM) were added to the cells in the presence or absence of the indicated concentrations of the SP compounds to be tested. After 72-hours incubation time various parameters, markers of cell viability, were determined. Mouse MA-10 tumor Leydig cells were maintained at 37° C. in DMEM/Ham's F12 (Biofluids, Rockville, Md.) medium supplemented with 5% heat-inactivated fetal calf serum and 2.5% horse serum in 5% CO2. Cells were plated on 96-well plates at the density of 2.5×10^4 cells/well for overnight. The cells were stimulated with the indicated concentrations of the various SP compounds in 0.2 ml/well serum-free medium for 2 hours. The culture medium was collected and tested for progesterone production by radioimmunoassay.
Cells viability was also assessed using the luminescence-based kit CytoLite™ (Packard BioScience Co.) according to the recommendations of the manufacturer. Briefly, cells were cultured and treated in 96-well plates and after 72-hours incubation time, 25 μl of Activator solution was added to the cells followed by 150 μl of Amplifier solution. Luminescence was measured on a TopCount NXT™ counter (Packard BioSciences Co.) following a 5 minute precount delay.

Aβ = target: T1, Aβ (Homo sapiens, UniProt P05067); test: CPBBA displacement of radiolabeled 22R-hydroxycholesterol from Aβ (Example II); type: binding; conditions: 100 μM unlabeled compound; 50 μM Aβ
T1 construct: Aβ1-42 peptide was purchased from American Peptide Co; purchased American Peptide Co. (Sunnyvale, Calif.)
T1 sequence (P05067 672-713): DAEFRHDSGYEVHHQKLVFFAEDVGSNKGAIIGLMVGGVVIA
Method: At the end of the incubation time, samples were separated by 1.5% agarose (Type I-B) gel electrophoresis under native conditions and transferred to nitrocellulose membrane (Schleicher&Schuell, Keene, N.H.) in 10×SSC buffer. The membrane was exposed to tritium-sensitive screen and analyzed by phosphoimaging using the Cyclone Storage phosphor system (Packard BioScience). Image-densitometric analysis was performed using the OptiQuant software (Packard BioScience). […] Low molecular weight unincorporated 22R-hydroxycholesterol and derivatives are separated and eliminated during electrophoresis.

[1] = test system: PC12 cells (rat pheochromocytoma neurons); test: MTT cytotoxicity assay, Aβ-induced neurotoxicity in PC12 cells (Example II); type: cell-based; conditions: MTT; compounds at 30 and 50 μM; 72 hours
Method: as §1
The cellular toxicity of Aβ was assessed using the 3-(4,5-dimethylthiazol-2-yl)-2,5-diphenyl tetrazolium bromide (MTT) assay (Trevigen, Gaithersburg, Md.). Briefly, 10 μl of the MTT solution were added to the cells cultured in 100 μl medium. After an incubation period of 4 hours, 100 μl of detergent were added and cells were incubated overnight at 37° C. Formazan blue formation was quantified at 600 nm and 690 nm using the Victor quantitative detection spectrophotometer (EGG-Wallac, Gaithersburg, Md.) and the results expressed as (DO600-DO690). […] Liu Y and Schubert D, Steroid hormones block amyloid fibril-induced 3-(4,5-dimethylthiazol-2-yl)-2,5-diphenyltetrazolium bromide (MTT) formazan exocytosis: relationship to neurotoxicity, J. Neurochem., 19, 1639-1662 (1998). For that reason, additional cytotoxicity and cell viability assays were used.
Yao et al., J. Neurochem., 83, 1110-1119 (2002); and Yao et al., The Gingko biloba extract EGb 761 rescues PC12 neuronal cells from β-amyloid-induced cell death by inhibiting the formation of β-amyloid-derived diffusible neurotoxic ligands, Brain Res., 889, 181-190 (2001). To stay close to the concentrations of Aβ present in AD brain, 0.1-10 μM concentrations of Aβ were used. The compounds tested for their neuroprotective properties were examined at 30 and 50 μM concentrations (FIGS. 9-15).

NT2 cells [2] = test: NT2 cell differentiation, phase-contrast morphology; type: cell-based, human; conditions: 25 μM; 3, 6 and 12 days (comparators 6 days)
[3] = CPBBA with NT2 cell protein; type: binding, human; conditions: 3 hours at 37° C.; competition with unlabeled compound
Method: After incubation, samples were separated by 1.0% agarose (Type I-B) gel electrophoresis and transferred to a nitrocellulose membrane (Schleicher & SchueII, Keene, N.H., USA) in 10×saline-sodium citrate (SSC) buffer. The membrane was exposed to a tritium-sensitive screen and analyzed by phosphoimaging using the Cyclone Storage Phosphor System (Packard BioScience, Meridien, Conn., USA). Image-densitometric analyses were performed using the OptiQuant software (Packard). […] Low molecular weight unincorporated 22R-hydroxycholesterol is separated and eliminated during electrophoresis.

NT2 cells [4] = test: Expression of GFRα receptor proteins in NT2 cells (immunoblot); type: cell-based, human; conditions: 25 μM; 6 days
Method: Cells were fixed with newly prepared 3.7% formaldehyde for 15 minutes and blocked by blocking reagent (Zymed Laboratories, San Francisco, Calif., USA). Inuunostaining was performed using rabbit anti-NF200, anti-NF145 and anti-NF70 (all at 1:200), and goat anti-GFRα1, anti-GFRα2 and anti-GFRα3 (all at 1:100); Santa Cruz Biotechnology (Santa Cruz, Calif., USA). All antibodies were used at 200 μg/ml. After overnight incubation at 4° C., the immunoreactivity was detected using horseradish peroxidase-conjugated anti-rabbit or anti-mouse IgG for 1 hour at room temperature and visualized using AEC.
Cells were then washed with phosphate-buffered saline (PBS) and lysed with loading buffer. Proteins were resolved by sodium dodecyl sulfate polyacrylamide gel electrophoresis (SDS-PAGE) on 4-20% gradient acrylamide-bis-acrylamide gel at 125 V for 2 hours and electrotransferred onto nitrocellulose membranes. After blocking with 5% nonfat milk, the membranes were subjected to immunoblot analysis by incubation overnight with rabbit anti-NF200, anti-NF145 and anti-NF70 (all at 1:4000) (Chemicon International, Temecula, Calif., USA) and goat anti-GFRα1, anti-GFRα2 and anti-GFRα3 (all at 1:500) (200 μg/ml; Santa Cruz Biotechnology, Inc., Santa Cruz, Calif., USA), goat anti-rabbit or rabbit anti-goat IgG-horseradish peroxidase being used as the secondary antibody (1:5000) (Zymed Laboratories, San Francisco, Calif., USA). Protein bands were visualized using ECL reagents (Amersham Pharmacia Biotech, Piscataway, N.J., USA). Image-densitometric analyses of the immunoreactive protein bands were performed using OptiQuant-image analysis software (Packard BioScience, Meriden, Conn., USA). Glyceraldehyde-3-phosphate dehydrogenase (GAPPH) served as an internal standard.

CC(C)CC[C@@H](O)[C@@H](C)[C@H]1CC[C@H]2[C@@H]3CC=C4C[C@@H](O)CC[C@]4(C)[C@H]3CC[C@]12C [SP222, 22R-hydroxycholesterol]
protection against 0.1 μM Aβ, membrane potential luminescence (PC12 cells; 0.1 μM Aβ): protected
protection against the two highest concentrations of Aβ, membrane potential luminescence (PC12 cells; 1.0 and 10.0 μM Aβ): failed to do so
displacement of radiolabeled 22R-hydroxycholesterol binding to Aβ (Aβ): 80%
neuroprotection against 0.1 μM Aβ-induced neurotoxicity [1]: protects
neuroprotection against 1 μM Aβ-induced neurotoxicity [1]: protects
neuroprotection against 10 μM Aβ-induced neurotoxicity [1]: limited neuroprotection
effect on NT2 cell morphology (differentiation) (NT2 cells [2]): induced morphologic changes
radiolabeling of NT2 cell protein with 3H-22R-hydroxycholesterol [3]: decreased in the presence of increasing concentrations of unlabeled 22R-hydroxycholesterol
decrease of GFRα3 protein expression (NT2 cells [4]): about 16%
expression of GFRα1 (NT2 cells [4]): no significant effect
increase of GFRα2 protein expression over the control level (NT2 cells [4]): 45%
